Measurements taken from US12274683B2 (Bayer HealthCare LLC, priority 2019, dated 2025).

System: inflammation/edema induced by carrageenan-injection into the footpads of Sprague Dawley (SD) rats
Test: Carrageenan-induced inflammation rat paw test (Example 3)
Conditions: at necropsy about 24 h post-carrageenan, N=10, SE in line below
Description: Efficacy evaluation was based on gait analysis, von Frey absolute thresholds and ankle caliper differentials recorded over 24 h after initial carrageenan injection, and paw differential weights following euthanasia of the test subjects.
Experimental Design. Male Sprague Dawley (Envigo RMS, Inc., Indianapolis) were weighed on Day 1 (mean 285 g) and randomized by body weight into treatment groups. On Day 0-1, animals in Groups 3-11 were dosed with topical compounds on 2-minute intervals according to the dose schedules in Table 10. […] Gait and von Frey analyses were conducted at time points of 2 h, 4 h, 6 h, 8 h, and 24 h post-carrageenan injection; ankle caliper measurements were taken immediately following gait assessment. […]
Gait Analysis. […] Gait was scored visually as follows (descriptions refer to diseased leg): • 0=Normal, approximately equal ink staining to normal paw. • 1=Slight limp/pain. […]
Testing began with three applications of the 4.31 hair. […] Responses were recorded as either a 0 (no response) or a 1 (response). […]
Testing was done on hind (heel) portions of the hind paw. Testers monitored the animals for hyper-responding or freezing, in which case animals were left alone until calm.

For COc1ccc2cc([C@H](C)C(=O)O)ccc2c1 [Naproxen (oral), Naproxen], the “Paw Weight Difference (R − L)” value was “‡0.410 g” and the “Paw Weight Difference (R − L)” value (listed as oral Naproxen) was “significantly reduced”.
